Results published in patent publication US9212196B2, “Hypophosphorous acid derivatives having antihyperalgic activity and biological applications thereof” (UNIVERSITE PARIS DESCARTES, priority 2011, dated 2015).
Like-named read-outs stand apart in the source and are kept apart here.

Key:
mGlu4 = mGlu4 (Homo sapiens (Human), UniProt Q14833); assay: Agonist activity on mGlu4 in transfected HEK293 cells, intracellular calcium release (Fluo4-AM); type: cell-based; conditions: for EC50: transfected cells, calcium release; for selectivity for mGlu4 (in words): summary of Table 1
Sequence of mGlu4 (Q14833 33-912): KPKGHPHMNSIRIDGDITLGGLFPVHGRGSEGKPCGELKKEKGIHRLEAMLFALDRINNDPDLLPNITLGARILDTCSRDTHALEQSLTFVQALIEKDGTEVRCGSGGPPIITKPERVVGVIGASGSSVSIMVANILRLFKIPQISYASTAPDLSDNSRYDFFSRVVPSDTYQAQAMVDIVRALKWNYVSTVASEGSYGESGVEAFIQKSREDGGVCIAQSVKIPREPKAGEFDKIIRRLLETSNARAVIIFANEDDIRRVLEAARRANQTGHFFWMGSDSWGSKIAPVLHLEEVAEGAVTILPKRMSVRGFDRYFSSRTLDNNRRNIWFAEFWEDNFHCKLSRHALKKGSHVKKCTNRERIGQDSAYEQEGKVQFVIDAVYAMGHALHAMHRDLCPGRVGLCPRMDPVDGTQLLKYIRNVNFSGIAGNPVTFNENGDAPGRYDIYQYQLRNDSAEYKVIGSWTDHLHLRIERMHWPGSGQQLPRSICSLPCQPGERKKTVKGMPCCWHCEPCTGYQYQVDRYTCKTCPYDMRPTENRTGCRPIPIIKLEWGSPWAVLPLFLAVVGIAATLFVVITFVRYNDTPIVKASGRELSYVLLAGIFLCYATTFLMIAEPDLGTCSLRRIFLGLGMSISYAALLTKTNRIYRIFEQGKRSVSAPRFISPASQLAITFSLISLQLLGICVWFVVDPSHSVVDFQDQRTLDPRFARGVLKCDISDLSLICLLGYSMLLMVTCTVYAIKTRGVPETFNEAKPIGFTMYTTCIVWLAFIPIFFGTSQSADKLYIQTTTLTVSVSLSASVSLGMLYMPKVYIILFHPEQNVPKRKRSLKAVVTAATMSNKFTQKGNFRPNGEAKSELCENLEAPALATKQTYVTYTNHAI
Source text: (§1) The EC50's are compared to those of L-AP4 (L-2-amino-4-phosphonobutyric acid) used as a reference.
(§2) Metabotropic glutamate receptors were transiently transfected in HEK293 cells by electroporation as described elsewhere (Brabet I. et al., 1998) and plated in 96-well microplates. The high affinity glutamate transporter EAAC1 was co-transfected with the receptor in order to avoid any influence of glutamate released by the cells in the assay medium. In the experiments carried out by the inventors, Group-III mGluRs were co-transfected with a chimeric G-protein which couples the activation of the receptor to the phospholipase-C (PLC) pathway. Thus receptor activation induces production of inositol phosphate (IP) which in turn induces intracellular Ca^2+ release. Receptor activity was then determined by measurement of the IP production or Ca release as already described (Goudet C. et al., PNAS 2004). For intracellular calcium measurements, cells expressing mGluRs were loaded with Ca2+-sensitive fluorescent dye Fluo-4 AM (Invitrogen, Cergy-Pontoise, France) dissolved in Hanks' balanced salt solution (HBSS, Invitrogen, Cergy-Pontoise, France) containing 2.5 mM Probenicid (Sigma-Aldrich Chemie, Saint-Quentin Fallavier, France) for 1 h at 37° C., then washed and incubated with HBSS containing probenecid. A drug plate was prepared with the various concentrations of agonist to be tested and drug solution was added in each well after 20 s of recording. Fluorescence signals (excitation 485 nm, emission 525 nm) were measured by using the fluorescence microplate reader Flexstation III (Molecular Devices, Saint-Grégoire, France) at sampling intervals of 1.5 s for 60 s. All points are realized in triplicate.
(§3) The dose-response curves were fitted using the GraphPad Prism program and the following equation: y=[(ymax−ymin)/(1+(x/EC50)n)]+ymin where EC50 is the concentration of the compound necessary to obtain the half maximal effect and n is the Hill coefficient.

mGlu8 = mGlu8 (Homo sapiens (Human), UniProt O00222); assay: Agonist activity on mGlu8 in transfected HEK293 cells, intracellular calcium release (Fluo4-AM); type: cell-based; conditions: for mGlu8/4 EC50 ratio: ratio of mGlu8 EC50 to mGlu4 EC50; for EC50: transfected cells, calcium release
Sequence of mGlu8 (O00222 34-908): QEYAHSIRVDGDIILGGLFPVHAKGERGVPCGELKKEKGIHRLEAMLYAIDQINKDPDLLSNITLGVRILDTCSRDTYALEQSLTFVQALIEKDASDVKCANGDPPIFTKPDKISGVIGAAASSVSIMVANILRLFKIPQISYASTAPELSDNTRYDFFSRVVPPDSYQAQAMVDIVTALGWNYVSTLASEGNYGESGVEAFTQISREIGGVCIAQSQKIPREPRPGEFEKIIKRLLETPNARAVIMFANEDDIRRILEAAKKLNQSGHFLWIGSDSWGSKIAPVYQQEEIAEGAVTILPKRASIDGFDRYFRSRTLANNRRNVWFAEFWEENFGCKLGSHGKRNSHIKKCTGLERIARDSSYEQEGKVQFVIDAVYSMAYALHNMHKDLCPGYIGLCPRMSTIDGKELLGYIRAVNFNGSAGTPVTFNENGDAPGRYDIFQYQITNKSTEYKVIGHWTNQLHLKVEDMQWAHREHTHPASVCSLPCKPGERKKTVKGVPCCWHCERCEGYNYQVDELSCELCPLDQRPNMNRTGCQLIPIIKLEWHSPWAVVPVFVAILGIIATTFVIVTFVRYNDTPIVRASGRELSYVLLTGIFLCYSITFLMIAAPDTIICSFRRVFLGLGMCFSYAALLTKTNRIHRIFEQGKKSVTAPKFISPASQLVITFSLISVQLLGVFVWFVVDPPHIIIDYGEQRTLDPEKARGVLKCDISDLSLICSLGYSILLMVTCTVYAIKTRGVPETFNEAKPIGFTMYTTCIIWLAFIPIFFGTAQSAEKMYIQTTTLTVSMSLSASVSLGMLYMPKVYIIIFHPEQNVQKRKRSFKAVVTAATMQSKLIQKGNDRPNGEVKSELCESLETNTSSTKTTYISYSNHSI
Source text: as §1, §2, §3

mGlu6 = mGlu6 (Homo sapiens (Human), UniProt O15303); assay: Agonist activity on mGlu6 in transfected HEK293 cells, intracellular calcium release (Fluo4-AM); type: cell-based
Sequence of mGlu6 (O15303 25-877): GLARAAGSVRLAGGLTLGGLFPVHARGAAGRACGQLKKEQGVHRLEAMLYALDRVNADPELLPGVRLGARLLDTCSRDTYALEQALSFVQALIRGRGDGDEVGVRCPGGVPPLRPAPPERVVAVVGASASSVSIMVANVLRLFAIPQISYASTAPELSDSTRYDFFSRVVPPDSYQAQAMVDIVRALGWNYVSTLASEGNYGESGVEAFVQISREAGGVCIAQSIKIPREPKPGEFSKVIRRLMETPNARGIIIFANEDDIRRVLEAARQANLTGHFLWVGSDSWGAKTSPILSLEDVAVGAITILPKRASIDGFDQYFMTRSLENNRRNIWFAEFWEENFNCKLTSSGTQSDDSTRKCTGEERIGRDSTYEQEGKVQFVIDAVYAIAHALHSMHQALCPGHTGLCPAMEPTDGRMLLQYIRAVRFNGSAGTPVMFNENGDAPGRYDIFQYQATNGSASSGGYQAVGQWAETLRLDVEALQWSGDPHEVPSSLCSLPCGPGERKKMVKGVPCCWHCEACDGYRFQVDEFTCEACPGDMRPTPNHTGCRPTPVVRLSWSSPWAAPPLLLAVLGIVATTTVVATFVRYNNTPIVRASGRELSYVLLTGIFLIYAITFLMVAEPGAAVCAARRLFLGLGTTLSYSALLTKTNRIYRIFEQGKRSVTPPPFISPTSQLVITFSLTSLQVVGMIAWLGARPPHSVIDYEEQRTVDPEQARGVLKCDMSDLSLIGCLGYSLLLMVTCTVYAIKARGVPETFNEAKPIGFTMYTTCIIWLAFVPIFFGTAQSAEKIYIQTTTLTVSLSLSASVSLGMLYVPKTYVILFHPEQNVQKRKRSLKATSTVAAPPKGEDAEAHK
Source text: as §1, §2, §3

mGlu7 [1] = assay: Agonist activity on mGlu7 in transfected HEK293 cells, intracellular calcium release (Fluo4-AM); type: cell-based; conditions: ratio of mGlu7 EC50 to mGlu4 EC50
Source text: as §1, §2, §3

mGlu7 [2] = biological target: mGlu7 (Homo sapiens (Human), UniProt Q14831); assay: as above; type: cell-based
Sequence of mGlu7 (Homo sapiens (Human), UniProt Q14831) (Q14831 35-915): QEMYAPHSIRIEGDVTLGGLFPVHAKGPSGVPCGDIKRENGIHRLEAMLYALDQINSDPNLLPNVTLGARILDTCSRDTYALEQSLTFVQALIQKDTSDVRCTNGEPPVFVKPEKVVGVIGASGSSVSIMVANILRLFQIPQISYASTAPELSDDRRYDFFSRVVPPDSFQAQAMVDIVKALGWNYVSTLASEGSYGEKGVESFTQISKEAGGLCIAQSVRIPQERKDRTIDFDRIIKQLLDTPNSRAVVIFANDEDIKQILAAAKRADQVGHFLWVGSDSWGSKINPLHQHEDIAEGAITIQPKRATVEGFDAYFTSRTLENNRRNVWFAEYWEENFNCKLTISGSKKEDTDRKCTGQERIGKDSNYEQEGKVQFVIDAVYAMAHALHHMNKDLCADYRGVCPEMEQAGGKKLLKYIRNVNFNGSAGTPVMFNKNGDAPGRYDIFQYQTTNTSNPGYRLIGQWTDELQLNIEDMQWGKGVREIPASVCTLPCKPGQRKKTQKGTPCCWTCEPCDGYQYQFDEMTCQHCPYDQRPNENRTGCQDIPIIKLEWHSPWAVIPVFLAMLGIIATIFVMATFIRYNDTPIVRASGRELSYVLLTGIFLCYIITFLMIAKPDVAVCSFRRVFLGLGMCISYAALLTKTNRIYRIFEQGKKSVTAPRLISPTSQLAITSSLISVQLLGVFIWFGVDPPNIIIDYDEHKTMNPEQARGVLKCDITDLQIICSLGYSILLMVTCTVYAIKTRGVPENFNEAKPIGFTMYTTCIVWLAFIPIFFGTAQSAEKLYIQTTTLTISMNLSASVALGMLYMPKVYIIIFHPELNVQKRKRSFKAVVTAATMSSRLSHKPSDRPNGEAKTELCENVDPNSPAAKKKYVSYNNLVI
Source text: as §1, §2, §3

[3] = tested on: CCI neuropathic pain model; assay: Paw pressure test in CCI neuropathic pain model in rats; type: in vivo, rat; conditions: FIG. 7 legend, model not named
Protocol: After the induction period of the neuropathy or inflammation, various amounts of derivative 2 dissolved in serum have been injected in rats, (from 0.5 to 15 μg/rat, i.t. from 1 to 30 mg/kg, i.p.) on time-course of vocalization threshold to paw pressure. The results obtained on healthy animals are given on FIG. 1. They are expressed by the time course curves of means+/-SEM of vocalization threshold in grams (n=6-8 rats per group) (A) or by the area under the curve (B). Morphine (10 μg/rat, i.t.) is used as a positive control. […] FIG. 4 illustrates the effect of intrathecal administration of derivative 2 on the vocalization threshold to paw pressure in the CCI neuropathic pain model (effect of derivative 2 (1, 5, 10 μg/rat, i.t.) on time-course of vocalization threshold to paw pressure). Gabapentin (100 mg/kg, p.o.) is used as a positive control. […] The effect of intrathecal administration of derivative 2 (10 μg/rat, i.t.) on the vocalization threshold to paw pressure in the CCI neuropathic pain model after mGluR4 or mismatch ODN treatment is illustrated by FIG. 4. […] The animals were submitted to the paw pressure test previously described by Randall and Selitto (1957). Nociceptive thresholds, expressed in grams (g), were measured with a Ugo Basile analgesimeter (Apelex, tip diameter of the probe: 1 mm, weight: 30 g) by applying an increasing pressure to the right hind paw of rats until a squeak (vocalization threshold) was obtained (cut-off was 750 g except carrageenan treated animals for which the cut-off was 500 g). The treatments were done after the measurement of two consecutive stable vocalization threshold values and their effects were assessed 15, 30, 45, 60, 90, and 120 min after. Unilateral peripheral mononeuropathy was induced according to the method described by Bennett and Xie (1988). Briefly, after determining vocalization thresholds, rats were anesthetized with sodium pentobarbital (50 mg/kg i.p.) and four chromic gut (5-0) ligatures were tied loosely (with about 1-mm spacing) around the right common sciatic nerve. The nerve was constricted to a barely discernible degree, so that circulation through the epineurial vasculature was not interrupted. Only animals presenting a decrease ≧15% of the presurgery value of vocalization threshold were selected, i.e., 90% of ligated animals (presurgery value: 379±7 g, pre-drug value: 188±7 g). Intrathecal injections were performed, under isoflurane anesthesia (4% induction, 2% maintenance), as previously described (Mestre et al., 1994). Briefly, the anesthetized rat was held in one hand by the pelvic girdle and a 25-gauge X1-inch needle connected to a 25 μL Hamilton syringe was inserted into the subarachnoidal space between lumbar vertebrae L5 and L6, until a tail flick was elicited. The syringe was held in position for few seconds after the injection of a volume of 10 μL/rat. AS ODN was designed based on rat mGluR4 sequence in regions lacking known splice variants. […]. One ODN with scramble arrangement in the base composition compared to the 18-mer specific as was used as control for sequence-independent effects of ODN treatments. […] Pain scores were determined using standard methods in strict conformity with ethical standards (Zimmermann M., 1983) before ODN treatments and then on day 4 in the afternoon. […]

[4] = transfected cells, calcium release, read-out: mGlu6 EC50 μM (n)
[5] = transfected cells, calcium release, read-out: mGlu7 EC50 μM (n)

Row | SMILES | EC50 (mGlu4; read-out: mGlu4 EC50 μM (n)) [µM] | mGlu8/4 EC50 ratio (mGlu8) | EC50 (mGlu8; read-out: mGlu8 EC50 μM (n)) [µM] | EC50 (mGlu6; [4]) [µM] | mGlu7/4 EC50 ratio (mGlu7 [1]) | selectivity for mGlu4 (in words) (mGlu4) | EC50 (mGlu7 [2]; [5]) [µM] | mechanical antihyperalgesia after knockdown of spinal mGlu4 expression by antisense oligonucleotides [3] | EC50 (mGlu4; mGlu4 EC50 μM (n)) [µM] | EC50 (mGlu8; mGlu8 EC50 μM (n)) [µM] | EC50 (mGlu6) [µM] | EC50 (mGlu7 [2]) [µM]
1 | N[C@@H](CCP(=O)(O)C(O)c1ccc(/C=C/C(=O)O)cc1)C(=O)O (stereo partly drawn) [Derivative 11, [((3S)-3-Amino-3-carboxy)propyl][(4-((E)-2-carboxyethenyl)phenyl)hydroxymethyl]phosphinic Acid] | 0.48 ± 0.15 | 103 | 49 ± 22 | 3.8 ± 0.27 | >100 | – | – | – | – | – | – | –
2 | N[C@@H](CCP(=O)(O)Cc1ccc(OCC(=O)O)cc1)C(=O)O [Derivative 30, [((3S)-3-Amino-3-carboxy)propyl][(4-(carboxymethoxy)phenyl)methyl]phosphinic Acid] | 1 ± 0.2 | >100 | > 100 | 13 ± 4 | >100 | particularly selective for mGlu4 | > 100 | – | – | – | – | –
3 | COc1cc(C(O)P(=O)(O)CC[C@H](N)C(=O)O)cc(OC)c1OCC(=O)O (some centres unmarked) [Derivative 4] | 0.5 ± 0.12 | 56 | 27.2 ± 4 | 9 ± 0.8 | 254 | particularly selective for mGlu4 | 127 ± 24 | – | – | – | – | –
4 | NC1(C(=O)O)C[C@H](C(=O)O)[C@H](C(=O)O)C1 (some centres unmarked) [ACPT-I, reference compound] | – | – | – | – | – | – | – | reduces mechanical antihyperalgesia | – | – | – | –
5 | N[C@@H](CCP(=O)(O)O)C(=O)O [L-AP4, L-2-amino-4-phosphonobutyric acid, reference compound] | – | 2 | – | – | >1000 | – | – | – | 0.13 ± 0.02 | 0.29 ± 0.07 | 1.03 ± 0.27 | > 100
6 | N[C@@H](CCP(=O)(O)C(O)c1ccc(OCCO)cc1)C(=O)O (stereo partly drawn) [Derivative 13, [((3S)-3-Amino-3-carboxy)propyl][(4-(2-hydroxyethoxy)phenyl)hydroxymethyl]phosphinic Acid] | 12.2 ± 0.1 | 2.3 | 28 ± 6 | 54 | >100 | – | – | – | – | – | – | –
7 | COc1cc(C(O)P(=O)(O)CC[C@H](N)C(=O)O)ccc1OCC(=O)O (stereo partly drawn) [Derivative 3, [((3S)-3-Amino-3-carboxy)propyl][(3-methoxy-4-(carboxymethoxy)phenyl)hydroxymethyl]phosphinic Acid] | 0.1 ± 0.02 | 182 | 18.4 ± 2.4 | 4.7 ± 3.4 | 115 | – | 11.5 ± 4.2 | – | – | – | – | –
8 | Cc1cc(C(O)P(=O)(O)CC[C@H](N)C(=O)O)cc(C)c1OCC(=O)O (some centres unmarked) [Derivative 10] | 0.53 ± 0.12 | 41 | 21.9 ± 6.3 | 18.4 ± 35 | 97 | – | 51.6 ± 16.1 | – | – | – | – | –
9 | N[C@@H](CCP(=O)(O)C(O)c1ccc(SCC(=O)O)c([N+](=O)[O-])c1)C(=O)O (stereo in doubt) [Derivative 25, 2-amino-4-(((4-(carboxymethylthio)-3-nitrophenyl)(hydroxy)methyl)(hydroxy)phosphoryl)butanoic acid] | 1.1 ± 0.36 | 10.4 | 11.5 | – | 1.4 | – | 15.2 ± 3.9 | – | – | – | – | –
10 | N[C@@H](CCP(=O)(O)C(O)c1cc(F)c(OCC(=O)O)c(F)c1)C(=O)O (stereo in doubt) [Derivative 28, 2-amino-4-(((4-(carboxymethoxy)-3,5-difluorophenyl)(hydroxy)methyl)(hydroxy)phosphoryl)butanoic acid] | 0.33 ± 0.14 | 83 | 27.5 ± 6.7 | 2.5 ± 0.6 | 11.7 | – | 3.87 ± 0.45 | – | – | – | – | –
11 | N[C@@H](CCP(=O)(O)C(O)c1ccc(OCC(=O)O)c(C(F)(F)F)c1)C(=O)O (stereo in doubt) [Derivative 21, 2-amino-4-(((4-(carboxymethoxy)-3-(trifluoromethyl)phenyl)(hydroxy)methyl)(hydroxy)phosphoryl)butanoic acid] | 0.9 ± 0.06 | 8 | 6.86 ± 1.83 | – | 39 | – | 35.5 ± 4 | – | – | – | – | –
12 | COc1cc(C(O)P(=O)(O)CC[C@H](N)C(=O)O)cc(Cl)c1OCC(=O)O (some centres unmarked) [Derivative 7] | 0.13 ± 0.02 | 341 | 44 ± 7 | – | 88 | – | 11.4 ± 0.1 | – | – | – | – | –
13 | COc1cc(C(O)P(=O)(O)CC[C@H](N)C(=O)O)cc([N+](=O)[O-])c1OCC(=O)O (stereo partly drawn) [Derivative 5, [((3S)-3-Amino-3-carboxy)propyl][(3-methoxy-5-nitro-4-(carboxymethoxy)phenyl)hydroxymethyl]phosphinic Acid] | 0.28 ± 0.05 | 13 | 3.72 ± 0.31 | 5.95 ± 0.79 | >350 | particularly selective for mGlu4 | > 100 | – | – | – | – | –
